# A melting point compilation (Tetko et al.; mined from patent text by program, amines drawn as free bases though some values may be those of a salt)
row,Structure (SMILES),melting point [°C]
1,N#Cc1ccc2c(c1)C(CCC1CC1)(C(F)(F)F)c1nc[nH]c(=O)c1N2 (configuration not stated),> 280
2,CN1C(=O)C(c2cccc(Br)c2)(c2cnn(CC(F)(F)F)c2)N=C1N (configuration not stated),80 to 82
3,O=C(O)C1CCCN1C(=O)COc1ccccc1 (configuration not stated),109 to 111
4,COc1cccc2c(Nc3ccc(C)c(O)c3)c(C#N)cnc12,148 to 150
5,CC(C)CC(=O)Nc1cccc(-c2ccnc3c(-c4ccc(-c5ccccc5)cc4)cnn23)c1,157 to 160
6,NOP(=O)(c1ccccc1)c1ccccc1,104
7,CCCC(C)(C)C[C@@H](CC(=O)OC(C)(C)C)C(=O)N1C(=O)O[C@H](c2ccccc2)[C@@H]1C,83 to 85
8,COC(C)c1nsc2ccc(-n3c(=O)cc(C(F)(F)F)n(C)c3=O)cc12 (configuration not stated),133 to 135
9,COc1cn(-c2cccc(-c3cnn(C)c3)c2F)nc(-c2ccnn2-c2ccccc2)c1=O,218 to 221
10,CC(=NO)c1ccncc1,154 to 155
11,CCCCn1c(=O)c2c(NC)n[nH]c2n(CCNCc2ccccc2)c1=O,198 to 200
12,C[C@@H]1CNC[C@H](C)N1Cc1ccc(COc2cccc3c2CN(C2CCC(=O)NC2=O)C3=O)cc1 (some centres not stated),253 to 255
13,COc1ccc2c(c1)C(c1ccc(OCCN(C)C)cc1)c1c-2ccc2ccccc12 (configuration not stated),159 to 160
14,CC(C)c1c(Sc2ccc(O)cc2)n(C)c2ccccc12,89 to 90
15,CCC(CC)(OCc1oc(-c2ccc(Cl)cc2)nc1C)C(=O)O,157
16,COCC(C)n1nc(-c2cnc(N)nc2-c2ccccc2)ccc1=O (configuration not stated),180 to 181
17,COc1cccc(NC(=O)NCc2nnc(C)n2-c2sc(C(=O)O)cc2C(=O)c2ccccc2Cl)c1,206 to 208
18,Cc1cc(OCc2ccc(-c3ccc(OC(F)(F)F)cc3)nc2C2CC2)ccc1OC(C)(C)C(=O)O,131 to 133
19,Cc1cc2c(c([N+](=O)[O-])c1)N(c1ccccc1C#N)CC2,138 to 139
20,O=C1C(=O)c2ccccc2C2=C1SCC1(CCN(S(=O)(=O)c3cccs3)CC1)O2,245 to 248
21,Cc1cccc(C(C)C)c1NC(=O)NCC1(c2ccccc2)CCCC1,157 to 159
22,O=C(O)Cc1nc(-c2c(Cl)cccc2Cl)no1,124 to 126
23,CN(CCc1ccccc1)S(=O)(=O)CC(=O)NO,149 to 151
24,Clc1ccccc1-c1nc(Cl)n(-c2ccccc2Cl)n1,95.5

row,Structure (SMILES),melting point [°C]
1,COC(=O)C=C(Br)SC#N,139 to 142
2,Nc1c([N+](=O)[O-])sc2ccc([N+](=O)[O-])cc12,288 to 291
3,COc1nc(Cl)cnc1NS(=O)(=O)c1cccnc1-c1ccc(CC(C)C)cc1,156 to 157
4,O=C1CCC(Nc2ccc3[nH]c(=O)c(C(=O)O)cc3c2)N1 (configuration not stated),> 300
5,Cc1ccc(OCc2nc(-c3ccccc3)oc2C)cn1,103 to 104
6,C/C(NCC(C)C)=C(\C#N)C(N)=S,165 to 167
7,O=C(O)C1Cc2c(cccc2-c2ccccc2)CN1C(=O)C(c1ccccc1)c1ccccc1 (configuration not stated),216 to 221
8,Cc1cc(C(C)(C)CBr)c(C)nn1,45 to 46
9,CNC(=O)Oc1ccc(NS(=O)(=O)c2ccc(C)cc2)c(C)c1,181 to 184
10,O=C(Nc1cccc(-c2ccnc3c(C(=O)c4cccs4)cnn23)c1)OCCCN1CCOCC1,198 to 199
11,N#CC(=C(C#N)c1ccc(F)cc1)c1ccc(F)cc1,194 to 195
12,O=C1Cc2cccc(Oc3ccccc3Cl)c2O1,118 to 120
13,CCCc1c(C(=O)NCc2ccc(-c3ccc(OCC#N)c(Br)c3)cc2)cnn1-c1ccccc1,102 to 109
14,COC(=O)CC(C(=O)OC)N1C(=O)C2NC(C)(C)SC21 (configuration not stated),136 to 137
15,O=C(CCCCCOc1ccc(-c2ccccc2)cc1)NO,151 to 152
16,CCC(CC)c1ccc(Cl)c2nc(Nc3cc(Cl)cc(Cl)c3)n(CCCCO)c12,208 to 210
17,O=C(O)CN1C(=O)C(=Cc2ccc(OCCc3ccccc3)c(OC(c3ccccc3)C(F)(F)F)c2)SC1=S (configuration not stated),168
18,CC(Cc1ccc(OCc2ccncc2)cc1)NCC(O)c1cccc(C(F)(F)F)c1 (configuration not stated),83 to 90
19,C#CCN(C(=O)c1cc(C)oc1C(F)(F)F)S(=O)(=O)c1cccc(Cl)c1,70 to 72
20,ClCc1ccc2ccc3cccc4ccc1c2c34,146 to 148
21,O=C(O)CCC(=O)Nc1ccc(N2CCN(C3(c4ccc(-c5ccccc5)cc4)C(=O)NC(=O)NC3=O)CC2)cc1,246 to 247
22,CC(C)Cc1ccc(C(C)C(=O)NCCCNC2=NCCN2)cc1 (configuration not stated),155 to 168
23,CC(C)(CSc1ccc(Cl)cc1)C(=O)C(Oc1ccc(Cl)cc1)n1cncn1 (configuration not stated),115
24,CCCC(C)CC(C)(C)NC(=O)CN1C(=O)c2ccccc2C1=O (configuration not stated),132

row,Structure (SMILES),melting point [°C]
1,C=CCOc1ccccc1C=C(C=O)C(C=O)=Cc1ccccc1OCC=C,117 to 118
2,COC(=O)c1cc(S(C)(=O)=O)ccc1OC1CCOC1=O (configuration not stated),102 to 105
3,C[Si](C)(C)NS(=O)(=O)c1ccccc1,62 to 63
4,O=C(O)c1n[nH]c(=O)c2cc(F)ccc12,222 to 224
5,CCCCCCCCCCC(C)(C)NC(=O)Nc1cc(OC)cc(C(C)(C)C)c1OCOC,83 to 85
6,N=C(N)Nc1nc(CSCCNc2[nH]ccc2[N+](=O)[O-])cs1,196 to 200
7,O=C(Nc1nc(-c2ccco2)c(-c2ccc(=O)n(Cc3ccccc3)c2)s1)c1ccncc1,215 to 218
8,Cc1ccc(S(=O)(=O)C(CCl)Sc2ccc(Br)cc2)cc1 (configuration not stated),82.5 to 84
9,Cc1ccc(C2c3c(C)c(N4CCN(c5cccnc5)CC4)c(C)c(C)c3OC2(C)C)cc1 (configuration not stated),136 to 137
10,Cc1coc(NC(=S)Nc2cc(Cl)ccc2C)n1,207 to 208
11,COc1ccc(-c2cc3ccccc3[nH]2)cc1NC(=S)Nc1ccc(C(=O)O)cc1,201 to 203
12,CCC(O)(CC)c1cc(C)c(-c2cc(OCc3ccc(CO)c(CO)c3)ccc2C)c(C)c1,128
13,Cc1cc(C)c2c(c1)cc(C(=O)OCc1ccccc1)n2CC(=O)OC(C)(C)C,115
14,C=CCN1CCCCNC1=C[N+](=O)[O-],82 to 83
15,CCCCNC(=O)Oc1ccc2oc3ccccc3c2c1,124 to 126
16,CC(=O)Nc1ccc(S(=O)(=O)NC23CC4CC(CC(C4)C2)C3)cc1,290
17,CC#CC(Cc1cccnc1)(C(=O)O)S(=O)(=O)c1ccc(OC)cc1 (configuration not stated),119 to 121
18,COC(=O)c1ncn2c1[C@@H]1CCCN1C(=O)c1sccc1-2,192 to 193
19,CCc1ccc2[nH]c(C(=O)OC)cc2c1,112
20,C#CCOCc1nnc(Cl)c2ccccc12,131 to 132
21,CN(CCCNC(=O)CSc1nc2ccc(N(C)C)nc2s1)Cc1ccc(Cl)c(Cl)c1,92 to 93
22,COC(=O)Cc1ccc(-c2nc3ccccc3o2)cc1,109 to 112
23,O=C(c1[nH]ncc1-c1csc(Nc2ncccn2)n1)C1CC1,244
24,O=C(CN1CCC(Cc2ccc(F)cc2)CC1)Nc1cccc([N+](=O)[O-])c1,118 to 120
